Consider eleven molecules from patent US20210032291A1, “Compstatin Analogs With Improved Pharmacokinetic Properties” (The Trustees of the University of Pennsylvania, priority 2011, published 2021).

The target in this assay is T1, C3b (Homo sapiens, UniProt P01024).
T1 construct: Biotinylated C3b was captured site-specifically on a streptavidin chip
Description: SPR kinetic analysis of binding to immobilized C3b (Biacore, single cycle kinetics). Particulars: for Kd: read-out: KD: binding constant from SPR; for koff: read-out: kd: dissociation rate. The method, then: SPR analysis. The interaction of the compstatin analogs with C3b was characterized using a Biacore 3000 instrument (GE Healthcare, Corp., Piscataway, N.J.). The running buffer was PBS, pH 7.4 (10 mM sodium phosphate, 150 mM NaCl) with 0.005% Tween-20. Biotinylated C3b was captured site-specifically on a streptavidin chip at about 3000 and 5000 RU density; two untreated flow cells were used as reference surface. For kinetic analysis, sets of five increasing concentrations of a particular compound were injected over the chip surface one after the other in a single cycle. […] Processed biosensor data were globally fitted to a 1:1 Langmuir binding model (kindly provided by GE Helthcare), and the equilibrium dissociation constant (KD) was calculated from the equation KD=kd/ka. Each assay was performed at least twice.
For orientation: In SPR one partner is held on a chip, and binding of the other changes the refractive index at the surface.

The structures appear in SMILES notation. Like-named read-outs stand apart in the source and are kept apart here. Bridge positions count the residues as written; N and C are the ends. Square brackets hold non-standard residues; d marks the D form. Peptide text beside a SMILES is read from it. Trp(1-Me) = Cn1cc(C[C@H](N)C(=O)O)c2ccccc21; NMeI = CC[C@H](C)[C@H](NC)C(=O)O; Orn = NCCC[C@H](N)C(=O)O; Sar = CNCC(=O)O

T1 sequence (P01024 23-667 limits assumed): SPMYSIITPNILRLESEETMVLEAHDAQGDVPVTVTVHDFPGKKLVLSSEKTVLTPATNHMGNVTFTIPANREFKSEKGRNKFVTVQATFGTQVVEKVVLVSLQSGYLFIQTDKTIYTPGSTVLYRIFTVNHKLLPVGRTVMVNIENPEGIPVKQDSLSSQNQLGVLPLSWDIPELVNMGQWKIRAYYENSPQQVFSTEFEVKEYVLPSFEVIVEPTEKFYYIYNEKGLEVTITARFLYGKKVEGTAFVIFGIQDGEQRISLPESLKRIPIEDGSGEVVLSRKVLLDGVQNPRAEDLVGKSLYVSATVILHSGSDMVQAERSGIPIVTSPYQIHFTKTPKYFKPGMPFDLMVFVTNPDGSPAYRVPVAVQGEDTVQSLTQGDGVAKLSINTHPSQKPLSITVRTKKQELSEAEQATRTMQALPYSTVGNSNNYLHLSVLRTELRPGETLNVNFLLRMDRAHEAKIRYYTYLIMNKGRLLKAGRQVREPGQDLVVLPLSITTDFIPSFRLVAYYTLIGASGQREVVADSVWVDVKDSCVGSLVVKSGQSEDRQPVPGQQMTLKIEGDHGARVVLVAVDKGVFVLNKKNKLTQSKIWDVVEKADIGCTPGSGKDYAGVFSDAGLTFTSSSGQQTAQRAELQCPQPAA
T1 sequence (P01024 749-1663 partner limits assumed): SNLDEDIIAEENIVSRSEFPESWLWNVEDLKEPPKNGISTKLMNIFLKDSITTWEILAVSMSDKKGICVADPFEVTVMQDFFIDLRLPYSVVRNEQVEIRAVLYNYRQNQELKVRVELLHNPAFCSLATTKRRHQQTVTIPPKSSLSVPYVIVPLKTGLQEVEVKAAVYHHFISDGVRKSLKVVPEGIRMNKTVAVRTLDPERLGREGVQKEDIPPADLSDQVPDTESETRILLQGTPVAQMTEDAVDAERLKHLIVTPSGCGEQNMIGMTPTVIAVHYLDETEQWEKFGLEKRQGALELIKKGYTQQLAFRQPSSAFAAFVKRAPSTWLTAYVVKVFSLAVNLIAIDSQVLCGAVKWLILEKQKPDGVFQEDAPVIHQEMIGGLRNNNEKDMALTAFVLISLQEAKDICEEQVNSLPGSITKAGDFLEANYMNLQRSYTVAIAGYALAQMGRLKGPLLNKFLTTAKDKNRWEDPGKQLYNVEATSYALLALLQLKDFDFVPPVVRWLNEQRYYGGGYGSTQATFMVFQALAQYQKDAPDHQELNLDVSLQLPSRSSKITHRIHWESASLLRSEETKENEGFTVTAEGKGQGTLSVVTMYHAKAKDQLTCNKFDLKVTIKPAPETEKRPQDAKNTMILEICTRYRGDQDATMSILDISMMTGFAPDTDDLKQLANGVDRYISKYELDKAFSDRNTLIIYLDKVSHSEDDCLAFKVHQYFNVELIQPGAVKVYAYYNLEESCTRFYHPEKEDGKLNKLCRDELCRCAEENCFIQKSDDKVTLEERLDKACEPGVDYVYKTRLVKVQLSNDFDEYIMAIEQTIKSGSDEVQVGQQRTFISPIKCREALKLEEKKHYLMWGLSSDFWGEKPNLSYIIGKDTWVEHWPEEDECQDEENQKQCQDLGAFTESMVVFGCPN

Take `CC[C@H](C)[C@H](NC(=O)[C@H](N)Cc1ccc(O)cc1)C(=O)N[C@H]1CSSC[C@@H](C(=O)N(C)[C@H](C(N)=O)[C@@H](C)CC)NC(=O)[C@H](CCCNC(=N)N)NC(=O)[C@H](Cc2c[nH]cn2)NC(=O)[C@H](C)NC(=O)CN(C)C(=O)[C@H](Cc2c[nH]c3ccccc23)NC(=O)[C@H](CC(N)=O)NC(=O)[C@H](CCC(N)=O)NC(=O)[C@H](Cc2cn(C)c3ccccc23)NC(=O)[C@H](C(C)C)NC1=O` [Cp40 (6Asn)] (H-[dY]ICV[Trp(1-Me)]QNW[Sar]AHRC[NMeI]-NH2; disulfide 3-13): for the setting “Table 2, Cp40-based analogs”, the “ka: association rate” value is 0.9 ± 0.1 10^6/Ms; the Kd (in general, the equilibrium constant for the complex coming apart) was found to be 3 ± 0.4 nM; the koff was found to be 0.0028 ± 0.0001 s⁻¹.

Turning to `CC[C@H](C)[C@H](NC(=O)[C@H](N)Cc1ccc(O)cc1)C(=O)N[C@H]1CSSC[C@@H](C(=O)N(C)[C@H](C(N)=O)[C@@H](C)CC)NC(=O)[C@H](CCCN)NC(=O)[C@H](Cc2c[nH]cn2)NC(=O)[C@H](C)NC(=O)CN(C)C(=O)[C@H](Cc2c[nH]c3ccccc23)NC(=O)[C@H](CC(N)=O)NC(=O)[C@H](CCC(N)=O)NC(=O)[C@H](Cc2cn(C)c3ccccc23)NC(=O)[C@H](C(C)C)NC1=O` [Cp40 (11Orn 6Asn)] (H-[dY]ICV[Trp(1-Me)]QNW[Sar]AH[Orn]C[NMeI]-NH2; disulfide 3-13), under “Table 2, Cp40-based analogs”, the “ka: association rate” value is 2.0 ± 0.4 10^6/Ms, the Kd worked out at 1.5 ± 0.4 nM and the koff was 0.0028 ± 0.0006 s⁻¹.

For `CC[C@H](C)[C@H](NC(=O)[C@H](N)Cc1ccc(O)cc1)C(=O)N[C@H]1CSSC[C@@H](C(=O)N(C)[C@H](C(N)=O)[C@@H](C)CC)NC(=O)[C@H](CCCN)NC(=O)[C@H](Cc2c[nH]cn2)NC(=O)[C@H](C)NC(=O)CN(C)C(=O)[C@H](Cc2c[nH]c3ccccc23)NC(=O)[C@H](CC(=O)O)NC(=O)[C@H](CCC(N)=O)NC(=O)[C@H](Cc2cn(C)c3ccccc23)NC(=O)[C@H](C(C)C)NC1=O` [Cp40 (11Orn)] (H-[dY]ICV[Trp(1-Me)]QDW[Sar]AH[Orn]C[NMeI]-NH2; disulfide 3-13), under “Table 2, Cp40-based analogs”, the “ka: association rate” value is 2.5 ± 0.1 10^6/Ms, the dissociation constant Kd came out at 0.8 ± 0.1 nM and the koff turned out to be 0.002 ± 0.0001 s⁻¹.

As to `CC[C@H](C)[C@H](NC(=O)[C@@H](N)Cc1ccccc1)C(=O)N[C@H]1CSSC[C@@H](C(=O)N(C)[C@H](C(N)=O)[C@@H](C)CC)NC(=O)[C@H](CCCNC(=N)N)NC(=O)[C@H](Cc2c[nH]cn2)NC(=O)[C@H](C)NC(=O)CN(C)C(=O)[C@H](Cc2c[nH]c3ccccc23)NC(=O)[C@H](CC(=O)O)NC(=O)[C@H](CCC(N)=O)NC(=O)[C@H](Cc2cn(C)c3ccccc23)NC(=O)[C@H](C(C)C)NC1=O` [compound 5] (H-FICV[Trp(1-Me)]QDW[Sar]AHRC[NMeI]-NH2; disulfide 3-13), where the note is “Table 1, N-terminal analogs”, the “ka: association rate” value was 2.1 ± 0.4 10^6/Ms, the Kd was determined as 1.6 ± 0.2 nM and the koff is 0.0033 ± 0.0003 s⁻¹.

Take `CC[C@H](C)[C@H](NC(=O)[C@@H](N)CCCNC(=N)N)C(=O)N[C@H]1CSSC[C@@H](C(=O)N(C)[C@H](C(N)=O)[C@@H](C)CC)NC(=O)[C@H](CCCNC(=N)N)NC(=O)[C@H](Cc2c[nH]cn2)NC(=O)[C@H](C)NC(=O)CN(C)C(=O)[C@H](Cc2c[nH]c3ccccc23)NC(=O)[C@H](CC(=O)O)NC(=O)[C@H](CCC(N)=O)NC(=O)[C@H](Cc2cn(C)c3ccccc23)NC(=O)[C@H](C(C)C)NC1=O` [compound 6] (H-RICV[Trp(1-Me)]QDW[Sar]AHRC[NMeI]-NH2; disulfide 3-13): under “Table 1, N-terminal analogs”, the “ka: association rate” value was 1.7 ± 0.2 10^6/Ms, the Kd amounted to 1.7 ± 0.2 nM and the koff came out at 0.0029 ± 0.0002 s⁻¹.

For the molecule `CC[C@H](C)[C@H](NC(=O)[C@@H](N)Cc1c[nH]c2ccccc12)C(=O)N[C@H]1CSSC[C@@H](C(=O)N(C)[C@H](C(N)=O)[C@@H](C)CC)NC(=O)[C@H](CCCNC(=N)N)NC(=O)[C@H](Cc2c[nH]cn2)NC(=O)[C@H](C)NC(=O)CN(C)C(=O)[C@H](Cc2c[nH]c3ccccc23)NC(=O)[C@H](CC(=O)O)NC(=O)[C@H](CCC(N)=O)NC(=O)[C@H](Cc2cn(C)c3ccccc23)NC(=O)[C@H](C(C)C)NC1=O` [compound 7] (H-WICV[Trp(1-Me)]QDW[Sar]AHRC[NMeI]-NH2; disulfide 3-13), under “Table 1, N-terminal analogs”, the “ka: association rate” value is given as 1.6 ± 0.1 10^6/Ms and the equilibrium dissociation constant (Kd) was determined as 2.2 ± 0.2 nM.

`CC[C@H](C)[C@H](NC(=O)[C@@H](N)[C@@H](C)O)C(=O)N[C@H]1CSSC[C@@H](C(=O)N(C)[C@H](C(N)=O)[C@@H](C)CC)NC(=O)[C@H](CCCNC(=N)N)NC(=O)[C@H](Cc2c[nH]cn2)NC(=O)[C@H](C)NC(=O)CN(C)C(=O)[C@H](Cc2c[nH]c3ccccc23)NC(=O)[C@H](CC(=O)O)NC(=O)[C@H](CCC(N)=O)NC(=O)[C@H](Cc2cn(C)c3ccccc23)NC(=O)[C@H](C(C)C)NC1=O` [compound 8] (H-TICV[Trp(1-Me)]QDW[Sar]AHRC[NMeI]-NH2; disulfide 3-13): under “Table 1, N-terminal analogs”, the “ka: association rate” value is 1.2 ± 0.1 10^6/Ms, the Kd is 2.6 ± 0.3 nM and the koff is 0.0031 ± 0.0002 s⁻¹.

In the case of `CC[C@H](C)[C@H](NC(=O)[C@@H](N)Cc1ccc(OC)cc1)C(=O)N[C@H]1CSSC[C@@H](C(=O)N(C)[C@H](C(N)=O)[C@@H](C)CC)NC(=O)[C@H](CCCNC(=N)N)NC(=O)[C@H](Cc2c[nH]cn2)NC(=O)[C@H](C)NC(=O)CN(C)C(=O)[C@H](Cc2c[nH]c3ccccc23)NC(=O)[C@H](CC(=O)O)NC(=O)[C@H](CCC(N)=O)NC(=O)[C@H](Cc2cn(C)c3ccccc23)NC(=O)[C@H](C(C)C)NC1=O` [compound 9], the “ka: association rate” value (Table 1, N-terminal analogs) is given as 2.3 ± 0.4 10^6/Ms.

As to `CC[C@H](C)[C@H](NC(=O)[C@H](Cc1ccccc1)NC)C(=O)N[C@H]1CSSC[C@@H](C(=O)N(C)[C@H](C(N)=O)[C@@H](C)CC)NC(=O)[C@H](CCCNC(=N)N)NC(=O)[C@H](Cc2c[nH]cn2)NC(=O)[C@H](C)NC(=O)CN(C)C(=O)[C@H](Cc2c[nH]c3ccccc23)NC(=O)[C@H](CC(=O)O)NC(=O)[C@H](CCC(N)=O)NC(=O)[C@H](Cc2cn(C)c3ccccc23)NC(=O)[C@H](C(C)C)NC1=O` [compound 10], where the note is “Table 1, N-terminal analogs”, the “ka: association rate” value is on record as 1.6 ± 0.2 10^6/Ms, the Kd came out at 1.8 ± 0.3 nM and the koff came out at 0.0029 ± 0.0003 s⁻¹.

As for `CC[C@H](C)[C@H](NC(=O)[C@@H](NC)C(C)C)C(=O)N[C@H]1CSSC[C@@H](C(=O)N(C)[C@H](C(N)=O)[C@@H](C)CC)NC(=O)[C@H](CCCNC(=N)N)NC(=O)[C@H](Cc2c[nH]cn2)NC(=O)[C@H](C)NC(=O)CN(C)C(=O)[C@H](Cc2c[nH]c3ccccc23)NC(=O)[C@H](CC(=O)O)NC(=O)[C@H](CCC(N)=O)NC(=O)[C@H](Cc2cn(C)c3ccccc23)NC(=O)[C@H](C(C)C)NC1=O` [compound 11], for the setting “Table 1, N-terminal analogs”, the “ka: association rate” value is reported as 1.8 ± 0.3 10^6/Ms, the Kd amounted to 1.9 ± 0.1 nM and the koff was 0.0035 ± 0.0006 s⁻¹.

Take `CC[C@H](C)[C@H](NC)C(=O)N[C@H](C(=O)N[C@H]1CSSC[C@@H](C(=O)N(C)[C@H](C(N)=O)[C@@H](C)CC)NC(=O)[C@H](CCCNC(=N)N)NC(=O)[C@H](Cc2c[nH]cn2)NC(=O)[C@H](C)NC(=O)CN(C)C(=O)[C@H](Cc2c[nH]c3ccccc23)NC(=O)[C@H](CC(=O)O)NC(=O)[C@H](CCC(N)=O)NC(=O)[C@H](Cc2cn(C)c3ccccc23)NC(=O)[C@H](C(C)C)NC1=O)[C@@H](C)CC` [compound 12]: for the setting “Table 1, N-terminal analogs”, the “ka: association rate” value was 1.6 ± 0.2 10^6/Ms, the Kd was determined as 2.4 ± 0.5 nM and the koff turned out to be 0.0037 ± 0.0003 s⁻¹.
